Test results published in patent publication US20150105252A1, “SUBSTITUTED PYRAZOLES AS HERBICIDES” (E I DU PONT DE NEMOURS AND COMPANY, priority 2013, published 2015).

Experiments:
blackgrass = experiment: Test C preemergence; assay type: in vivo, Alopecurus myosuroides; details: preemergence; for Plant response rating, Blackgrass: 125 g ai/ha, scale 0 to 100, 0 = no effect, 100 = complete control
Outline: (§1)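 Scores of 0 (no effect) to 100 (complete control) were assigned by eye after 13–15 days, comparing treated pots with controls. Soil-applied (preemergence) treatments went onto seeds in loam and sand; foliar (postemergence) treatments onto 1- to 4-leaf plants in peat medium.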

velvetleaf [1] = experiment: Test C preemergence; assay type: in vivo, Abutilon theophrasti; details: preemergence; for Plant response rating, Velvetleaf: 125 g ai/ha, scale 0 to 100, 0 = no effect, 100 = complete control
Outline: as §1

crabgrass, large = experiment: Test A postemergence; assay type: in vivo, Digitaria sanguinalis
Outline: (§2)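 Visual injury rating, 0–100 (0 no effect, 100 complete control), vs untreated controls ~10 days after treatment in greenhouse. Pre: directed soil spray on seeded loam/sand. Post: 2–10 cm plants, 1–2 leaf stage. Formulation: non-phytotoxic solvent mix + surfactant.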

galium = experiment: Test C preemergence; assay type: in vivo, Galium aparine; details: preemergence; for Plant response rating, Galium: 125 g ai/ha, scale 0 to 100, 0 = no effect, 100 = complete control
Outline: as §1

barnyardgrass [2] = experiment: Test A preemergence; assay type: in vivo, Echinochloa crus-galli; details: preemergence; for Barnyardgrass plant response rating (0 to 100 scale, 0 is no effect, 100 is complete control): 125 g ai/ha, visual injury approx. 10 days after treatment; for Barnyardgrass plant response rating: 500 g ai/ha, visual injury after approx. 10 days, 0 to 100 scale (0 no effect, 100 complete control)
Outline: as §2

barnyardgrass [3] = experiment: Test C preemergence; assay type: in vivo, Echinochloa crus-galli; details: preemergence; for Plant response rating, Barnyardgrass: 125 g ai/ha, scale 0 to 100, 0 = no effect, 100 = complete control
Outline: as §1

pigweed = experiment: Test C preemergence; assay type: in vivo, Amaranthus retroflexus; details: preemergence; for Plant response rating, Pigweed: 125 g ai/ha, scale 0 to 100, 0 = no effect, 100 = complete control
Outline: as §1

velvetleaf [4] = experiment: Test A postemergence; assay type: in vivo, Abutilon theophrasti; details: Postemergence
Outline: as §2

johnsongrass = experiment: Test C preemergence; assay type: in vivo, Sorghum halepense; details: preemergence; for Plant response rating, Johnsongrass: 125 g ai/ha, scale 0 to 100, 0 = no effect, 100 = complete control
Outline: as §1

ryegrass, Italian = experiment: Test C preemergence; assay type: in vivo, Lolium multiflorum; details: preemergence; for Plant response rating, Ryegrass, Italian: 125 g ai/ha, scale 0 to 100, 0 = no effect, 100 = complete control
Outline: as §1

soybean = experiment: Test C preemergence; assay type: in vivo, Glycine max; details: preemergence; for Plant response rating, Soybean: 125 g ai/ha, scale 0 to 100, 0 = no effect, 100 = complete control
Outline: as §1

corn [5] = experiment: Test A postemergence; assay type: in vivo, Zea mays
Outline: as §2

oilseed rape = experiment: Test C preemergence; assay type: in vivo, Brassica napus; details: preemergence; for Plant response rating, Oilseed Rape: 125 g ai/ha, scale 0 to 100, 0 = no effect, 100 = complete control
Outline: as §1

corn [6] = experiment: Test C preemergence; assay type: in vivo, Zea mays; details: preemergence; for Plant response rating, Corn: 125 g ai/ha, scale 0 to 100, 0 = no effect, 100 = complete control
Outline: as §1

wheat = experiment: Test C preemergence; assay type: in vivo, Triticum aestivum; details: preemergence; for Plant response rating, Wheat: 125 g ai/ha, scale 0 to 100, 0 = no effect, 100 = complete control
Outline: as §1

[7] = 31 g ai/ha, visual rating, scale 0 to 100 (0 no effect, 100 complete control), 13 to 15 days
[8] = 62 g ai/ha, scale 0 to 100 (0 no effect, 100 complete control), 13 to 15 days
[9] = 250 g ai/ha, scale 0 to 100, 0 is no effect, 100 is complete control
[10] = Postemergence, 500 g ai/ha, 0 to 100 scale (0 no effect, 100 complete control)
[11] = postemergence, 125 g ai/ha, about 10 days, visual rating on 0 to 100 scale (0 no effect, 100 complete control)
[12] = 125 g ai/ha, 0 to 100 scale, 0 no effect, 100 complete control
[13] = 500 g ai/ha, 0 to 100 scale (0 no effect, 100 complete control)

CCONC(=O)c1cc(OCC)n(Cc2ccnc(C(F)(F)F)c2)n1 [Compound 195]
Blackgrass plant response rating (blackgrass; [7]): 5
Blackgrass plant response rating (blackgrass; [8]): 90
Plant response rating, Blackgrass (blackgrass; 13 to 15 days): 90
Blackgrass plant response rating (blackgrass; [9]): 90
Velvetleaf plant response rating (velvetleaf [1]; [7]): 15
Velvetleaf plant response rating (velvetleaf [1]; [8]): 60
Plant response rating, Velvetleaf (velvetleaf [1]; 13 to 15 days): 100
Velvetleaf plant response rating (velvetleaf [1]; [9]): 100
Crabgrass, Large plant response rating (crabgrass, large; [10]): 100
Crabgrass, Large plant response rating (crabgrass, large; [11]): 80
Galium plant response rating (galium; [7]): 0
Galium plant response rating (galium; [8]): 85
Plant response rating, Galium (galium; 13 to 15 days): 95
Galium plant response rating (galium; [9]): 100
Barnyardgrass plant response rating (0 to 100 scale, 0 is no effect, 100 is complete control) (barnyardgrass [2]): 90
Barnyardgrass plant response rating (barnyardgrass [2]): 100
Barnyardgrass plant response rating (barnyardgrass [3]; [7]): 60
Barnyardgrass plant response rating (barnyardgrass [3]; [8]): 85
Plant response rating, Barnyardgrass (barnyardgrass [3]; 13 to 15 days): 100
Barnyardgrass plant response rating (barnyardgrass [3]; [9]): 100
Pigweed plant response rating (pigweed; [8]): 98
Plant response rating, Pigweed (pigweed; 13 to 15 days): 100
Pigweed plant response rating (pigweed; [9]): 100
Velvetleaf plant response rating (velvetleaf [4]; [12]): 70
Velvetleaf plant response rating (velvetleaf [4]; [13]): 100
Johnsongrass plant response rating (johnsongrass; [7]): 5
Johnsongrass plant response rating (johnsongrass; [8]): 30
Plant response rating, Johnsongrass (johnsongrass; 13 to 15 days): 75
Johnsongrass plant response rating (johnsongrass; [9]): 85
Ryegrass, Italian plant response rating (ryegrass, Italian; [7]): 10
Ryegrass, Italian plant response rating (ryegrass, Italian; [8]): 60
Plant response rating, Ryegrass, Italian (ryegrass, Italian; 13 to 15 days): 90
Ryegrass, Italian plant response rating (ryegrass, Italian; [9]): 90
Soybean plant response rating (soybean; [7]): 5
Soybean plant response rating (soybean; [8]): 5
Plant response rating, Soybean (soybean; 13 to 15 days): 25
Soybean plant response rating (soybean; [9]): 60
Corn plant response rating (corn [5]; [10]): 90
Corn plant response rating (corn [5]; [11]): 80
Oilseed Rape plant response rating (oilseed rape; [7]): 30
Oilseed Rape plant response rating (oilseed rape; [8]): 85
Plant response rating, Oilseed Rape (oilseed rape; 13 to 15 days): 95
Oilseed Rape plant response rating (oilseed rape; [9]): 98
Corn plant response rating (corn [6]; [7]): 25
Corn plant response rating (corn [6]; [8]): 45
Plant response rating, Corn (corn [6]; 13 to 15 days): 70
Corn plant response rating (corn [6]; [9]): 95
Wheat plant response rating (wheat; [7]): 0
Wheat plant response rating (wheat; [8]): 45
Plant response rating, Wheat (wheat; 13 to 15 days): 85
Wheat plant response rating (wheat; [9]): 90

CCNC(=O)c1cc(CC)n(Cc2ccnc(C(F)(F)F)c2)n1 [Compound 196]
Blackgrass plant response rating (blackgrass; [7]): 85
Blackgrass plant response rating (blackgrass; [8]): 90
Plant response rating, Blackgrass (blackgrass; 13 to 15 days): 90
Blackgrass plant response rating (blackgrass; [9]): 90
Velvetleaf plant response rating (velvetleaf [1]; [7]): 40
Velvetleaf plant response rating (velvetleaf [1]; [8]): 100
Plant response rating, Velvetleaf (velvetleaf [1]; 13 to 15 days): 100
Velvetleaf plant response rating (velvetleaf [1]; [9]): 100
Crabgrass, Large plant response rating (crabgrass, large; [10]): 100
Crabgrass, Large plant response rating (crabgrass, large; [11]): 90
Galium plant response rating (galium; [7]): 98
Galium plant response rating (galium; [8]): 95
Plant response rating, Galium (galium; 13 to 15 days): 100
Galium plant response rating (galium; [9]): 100
Barnyardgrass plant response rating (0 to 100 scale, 0 is no effect, 100 is complete control) (barnyardgrass [2]): 90
Barnyardgrass plant response rating (barnyardgrass [2]): 100
Barnyardgrass plant response rating (barnyardgrass [3]; [7]): 98
Barnyardgrass plant response rating (barnyardgrass [3]; [8]): 100
Plant response rating, Barnyardgrass (barnyardgrass [3]; 13 to 15 days): 100
Barnyardgrass plant response rating (barnyardgrass [3]; [9]): 100
Pigweed plant response rating (pigweed; [7]): 98
Pigweed plant response rating (pigweed; [8]): 98
Plant response rating, Pigweed (pigweed; 13 to 15 days): 100
Pigweed plant response rating (pigweed; [9]): 100
Velvetleaf plant response rating (velvetleaf [4]; [12]): 80
Velvetleaf plant response rating (velvetleaf [4]; [13]): 100
Johnsongrass plant response rating (johnsongrass; [7]): 55
Johnsongrass plant response rating (johnsongrass; [8]): 85
Plant response rating, Johnsongrass (johnsongrass; 13 to 15 days): 100
Johnsongrass plant response rating (johnsongrass; [9]): 100
Ryegrass, Italian plant response rating (ryegrass, Italian; [7]): 30
Ryegrass, Italian plant response rating (ryegrass, Italian; [8]): 85
Plant response rating, Ryegrass, Italian (ryegrass, Italian; 13 to 15 days): 90
Ryegrass, Italian plant response rating (ryegrass, Italian; [9]): 90
Soybean plant response rating (soybean; [7]): 40
Soybean plant response rating (soybean; [8]): 55
Plant response rating, Soybean (soybean; 13 to 15 days): 90
Soybean plant response rating (soybean; [9]): 98
Corn plant response rating (corn [5]; [10]): 90
Corn plant response rating (corn [5]; [11]): 80
Oilseed Rape plant response rating (oilseed rape; [7]): 90
Oilseed Rape plant response rating (oilseed rape; [8]): 98
Plant response rating, Oilseed Rape (oilseed rape; 13 to 15 days): 100
Oilseed Rape plant response rating (oilseed rape; [9]): 100
Corn plant response rating (corn [6]; [7]): 5
Corn plant response rating (corn [6]; [8]): 5
Plant response rating, Corn (corn [6]; 13 to 15 days): 65
Corn plant response rating (corn [6]; [9]): 98
Wheat plant response rating (wheat; [7]): 0
Wheat plant response rating (wheat; [8]): 65
Plant response rating, Wheat (wheat; 13 to 15 days): 85
Wheat plant response rating (wheat; [9]): 80

Cc1cc(C(=O)NC(C)C)nn1Cc1ccnc(C(F)(F)F)c1 [Compound 197]
Blackgrass plant response rating (blackgrass; [7]): 0
Blackgrass plant response rating (blackgrass; [8]): 85
Plant response rating, Blackgrass (blackgrass; 13 to 15 days): 90
Blackgrass plant response rating (blackgrass; [9]): 90
Velvetleaf plant response rating (velvetleaf [1]; [7]): 25
Velvetleaf plant response rating (velvetleaf [1]; [8]): 90
Plant response rating, Velvetleaf (velvetleaf [1]; 13 to 15 days): 65
Velvetleaf plant response rating (velvetleaf [1]; [9]): 100
Crabgrass, Large plant response rating (crabgrass, large; [10]): 100
Crabgrass, Large plant response rating (crabgrass, large; [11]): 80
Galium plant response rating (galium; [7]): 90
Galium plant response rating (galium; [8]): 100
Plant response rating, Galium (galium; 13 to 15 days): 98
Galium plant response rating (galium; [9]): 95
Barnyardgrass plant response rating (0 to 100 scale, 0 is no effect, 100 is complete control) (barnyardgrass [2]): 90
Barnyardgrass plant response rating (barnyardgrass [2]): 100
Barnyardgrass plant response rating (barnyardgrass [3]; [7]): 65
Barnyardgrass plant response rating (barnyardgrass [3]; [8]): 98
Plant response rating, Barnyardgrass (barnyardgrass [3]; 13 to 15 days): 100
Barnyardgrass plant response rating (barnyardgrass [3]; [9]): 100
Pigweed plant response rating (pigweed; [7]): 100
Pigweed plant response rating (pigweed; [8]): 100
Plant response rating, Pigweed (pigweed; 13 to 15 days): 100
Pigweed plant response rating (pigweed; [9]): 100
Velvetleaf plant response rating (velvetleaf [4]; [12]): 30
Velvetleaf plant response rating (velvetleaf [4]; [13]): 80
Johnsongrass plant response rating (johnsongrass; [7]): 10
Johnsongrass plant response rating (johnsongrass; [8]): 40
Plant response rating, Johnsongrass (johnsongrass; 13 to 15 days): 80
Johnsongrass plant response rating (johnsongrass; [9]): 85
Ryegrass, Italian plant response rating (ryegrass, Italian; [7]): 15
Ryegrass, Italian plant response rating (ryegrass, Italian; [8]): 35
Plant response rating, Ryegrass, Italian (ryegrass, Italian; 13 to 15 days): 85
Ryegrass, Italian plant response rating (ryegrass, Italian; [9]): 90
Soybean plant response rating (soybean; [7]): 45
Soybean plant response rating (soybean; [8]): 80
Plant response rating, Soybean (soybean; 13 to 15 days): 98
Soybean plant response rating (soybean; [9]): 98
Corn plant response rating (corn [5]; [10]): 90
Corn plant response rating (corn [5]; [11]): 30
Oilseed Rape plant response rating (oilseed rape; [7]): 80
Oilseed Rape plant response rating (oilseed rape; [8]): 95
Plant response rating, Oilseed Rape (oilseed rape; 13 to 15 days): 95
Oilseed Rape plant response rating (oilseed rape; [9]): 100
Corn plant response rating (corn [6]; [7]): 5
Corn plant response rating (corn [6]; [8]): 5
Plant response rating, Corn (corn [6]; 13 to 15 days): 45
Corn plant response rating (corn [6]; [9]): 95
Wheat plant response rating (wheat; [7]): 0
Wheat plant response rating (wheat; [8]): 0
Plant response rating, Wheat (wheat; 13 to 15 days): 5
Wheat plant response rating (wheat; [9]): 80
